IC50 data for 26 compounds are collected here from US11932658B2 (BRISTOL-MYERS SQUIBB COMPANY, priority 2016, dated 2024).

The IC50 is the midpoint of a concentration-inhibition curve.

The target of this test is T1, PAR4 (Homo sapiens, UniProt Q96RI0).
T1 construct: expressed in transfected cells; host or cells: HEK293 PAR4 Clone 1.2A (BMS Arctic ID 383940)
T1 sequence (Q96RI0 18-385): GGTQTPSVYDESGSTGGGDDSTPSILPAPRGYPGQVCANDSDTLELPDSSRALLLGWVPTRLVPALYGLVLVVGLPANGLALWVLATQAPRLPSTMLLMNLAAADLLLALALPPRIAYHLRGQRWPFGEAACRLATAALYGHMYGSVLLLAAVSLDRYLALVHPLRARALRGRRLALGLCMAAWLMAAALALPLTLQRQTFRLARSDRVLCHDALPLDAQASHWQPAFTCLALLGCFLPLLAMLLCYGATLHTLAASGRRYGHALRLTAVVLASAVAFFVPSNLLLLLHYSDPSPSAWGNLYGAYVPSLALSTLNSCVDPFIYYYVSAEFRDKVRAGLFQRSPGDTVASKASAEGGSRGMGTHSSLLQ
Description: PAR4 FLIPR assay (antagonism of agonist peptide-induced calcium mobilization). It is filed as cell-based. Summed up: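 Antagonism was taken as block of calcium mobilization evoked by the agonist peptide H-Ala-Phe(4-F)-Pro-Gly-Trp-Leu-Val-Lys-Asn-[…]-NH2, added after 30 min room-temperature compound preincubation in dye-loaded PAR4-transfected HEK293 cells (endogenous PAR1). Fluorescence was read on FDSS, with compound addition alone used as the agonist counter-screen; values come from 11-point concentration-response curves.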
A general note: Calcium flux is commonly read through the fluorescence of an indicator in the cells.

As for `COc1cnc2c(-c3nc4cc(F)c5c(c4s3)C[C@@H](CNC(=O)OC3CCOCC3)O5)cc(C)cc2n1` [Example 245, (S)-tetrahydro-2H-pyran-4-yl ((5-fluoro-2-(2-methoxy-7-methylquinoxalin-5-yl)-7,8-dihydrobenzofuro[5,4-d]thiazol-7-yl)methyl)carbamate], the IC50 came to 24 nM.
As for `COc1cnc2c(-c3nc4cc(F)c5c(c4s3)C[C@@H](CNC(=O)OCC(C)C)O5)cc(C)cc2n1` [Example 246, (S)-isobutyl ((5-fluoro-2-(2-methoxy-7-methylquinoxalin-5-yl)-7,8-dihydrobenzofuro[5,4-d]thiazol-7-yl)methyl)carbamate], the IC50 was 5 nM.
Regarding `COc1cnc2c(-c3nc4cc(F)c5c(c4s3)C[C@@H](CNC(=O)OCCF)O5)cc(C)cc2n1` [Example 247, (S)-2-fluoroethyl ((5-fluoro-2-(2-methoxy-7-methylquinoxalin-5-yl)-7,8-dihydrobenzofuro[5,4-d]thiazol-7-yl)methyl)carbamate], the IC50 worked out at 0.7 nM.
Under `COc1cnc2c(-c3nc4cc(F)c5c(c4s3)C[C@@H](CNC(=O)Nc3ccccc3)O5)cc(C)cc2n1` [Example 248, (S)-1-((5-fluoro-2-(2-methoxy-7-methylquinoxalin-5-yl)-7,8-dihydrobenzofuro[5,4-d]thiazol-7-yl)methyl)-3-phenylurea] stands 7 nM; under `COc1cnc2c(-c3nc4cc(F)c5c(c4s3)C[C@@H](CNC(=O)OCC(F)(F)F)O5)cc(C)cc2n1` [Example 249, (S)-2,2,2-trifluoroethyl ((5-fluoro-2-(2-methoxy-7-methylquinoxalin-5-yl)-7,8-dihydrobenzofuro[5,4-d]thiazol-7-yl)methyl)carbamate], 1 nM; under `COCCOC(=O)NC[C@@H]1Cc2c(c(F)cc3nc(-c4cc(C)cc5nc(OC)cnc45)sc23)O1` [Example 250, (S)-2-methoxyethyl ((5-fluoro-2-(2-methoxy-7-methylquinoxalin-5-yl)-7,8-dihydrobenzofuro[5,4-d]thiazol-7-yl)methyl)carbamate], 2.3 nM.
For `COc1cnc2c(-c3nc4cc(F)c5c(c4s3)C[C@](C)(COC(=O)Nc3cnc(OCCO)nc3)O5)cc(C)cc2n1` [Example 251, (R)-(5-fluoro-2-(2-methoxy-7-methylquinoxalin-5-yl)-7-methyl-7,8-dihydrobenzofuro[5,4-d]thiazol-7-yl)methyl (2-(2-hydroxyethoxy)pyrimidin-5-yl)carbamate], the IC50 turned out to be 0.9 nM.
Under `COc1cnc2c(-c3nc4cc(F)c5c(c4s3)[C@@H](C)[C@H](COC(=O)Nc3cnc(OCCO)nc3)O5)cc(C)cc2n1` [Example 252, ((7R,8R)-5-fluoro-2-(2-methoxy-7-methylquinoxalin-5-yl)-8-methyl-7,8-dihydrobenzofuro[5,4-d]thiazol-7-yl)methyl (2-(2-hydroxyethoxy)pyrimidin-5-yl)carbamate] stands 88 nM; under `COc1cnc2c(-c3nc4cc(F)c5c(c4s3)[C@H](C)[C@@H](CO)O5)cc(Cl)cc2n1` [Example 253, ((7S,8S)-2-(7-chloro-2-methoxyquinoxalin-5-yl)-5-fluoro-8-methyl-7,8-dihydrobenzofuro [5,4-d]thiazol-7-yl)methanol], 2.7 nM.
In the case of `COc1cnc2c(-c3nc4cc(F)c5c(c4s3)[C@H](C)[C@@H](CO)O5)cc(C#N)cc2n1` [Example 254, 8-((7S,8S)-5-fluoro-7-(hydroxymethyl)-8-methyl-7,8-dihydrobenzofuro[5,4-d]thiazol-2-y 1)-3-methoxyquinoxaline-6-carbonitrile], the IC50 was 0.6 nM.
With `COC(=O)NC[C@H]1Oc2c(F)cc3nc(-c4cc(C)cc5nc(OC)cnc45)sc3c2[C@@H]1C` [Example 255, Methyl (((7S,8S)-5-fluoro-2-(2-methoxy-7-methylquinoxalin-5-yl)-8-methyl-7,8-dihydrobenzofuro[5,4-d]thiazol-7-yl)methyl)carbamate], the IC50 came out at 1.4 nM.
Under `COc1cnc2c(-c3nc4cc(F)c5c(c4s3)[C@H](C)[C@@H](CNC(=O)OCC(C)C)O5)cc(C)cc2n1` [Example 256, Isobutyl (((7S,8S)-5-fluoro-2-(2-methoxy-7-methylquinoxalin-5-yl)-8-methyl-7,8-dihydrobenzofuro[5,4-d]thiazol-7-yl)methyl)carbamate] stands 0.7 nM; under `COc1cnc2c(-c3nc4cc(F)c5c(c4s3)C[C@@H](CNC(=O)NC3CC3)O5)cc(C)cc2n1` [Example 257, (S)-1-cyclopropyl-3-((5-fluoro-2-(2-methoxy-7-methylquinoxalin-5-yl)-7,8-dihydrobenzofuro[5,4-d]thiazol-7-yl)methyl)urea], 50 nM; under `COc1cnc2c(-c3nc4cc(F)c5c(c4s3)C[C@@H](CNC(=O)N3CCOCC3)O5)cc(C)cc2n1` [Example 258, (S)-N-((5-fluoro-2-(2-methoxy-7-methylquinoxalin-5-yl)-7,8-dihydrobenzofuro[5,4-d]thiazol-7-yl)methyl)morpholine-4-carboxamide], 8.1 nM.
To `CCOc1cnc2c(-c3nc4cc(F)c5c(c4s3)[C@H](C)[C@@H](CO)O5)cc(C)cc2n1` [Example 259, ((7S,8S)-2-(2-ethoxy-7-methylquinoxalin-5-yl)-5-fluoro-8-methyl-7,8-dihydrobenzofuro[5,4-d]thiazol-7-yl)methanol] belongs 1.1 nM.
To `CCOC(=O)NC[C@@H]1Cc2c(c(F)cc3nc(-c4cc(C)cc5nc(OC)cnc45)sc23)O1` [Example 260, (S)-ethyl ((5-fluoro-2-(2-methoxy-7-methylquinoxalin-5-yl)-7,8-dihydrobenzofuro[5,4-d]thiazol-7-yl)methyl)carbamate] belongs 1 nM; to `COc1cnc2c(-c3nc4cc(F)c5c(c4s3)C[C@@H](CNC(=O)OCC(C)(C)C)O5)cc(C)cc2n1` [Example 261, (S)-neopentyl ((5-fluoro-2-(2-methoxy-7-methylquinoxalin-5-yl)-7,8-dihydrobenzofuro[5,4-d]thiazol-7-yl)methyl)carbamate], 1.1 nM.
For the compound `COc1cnc2c(-c3nc4c(C(O)C(C)(C)C)cc5c(c4s3)OCCO5)cc(C)cc2n1` (centres unmarked) [Example 262, 1-(2-(2-methoxy-7-methylquinoxalin-5-yl)-7,8-dihydro-[1,4]dioxino[2′,3′:3,4]benzo[1,2-d]thiazol-4-yl)-2,2-dimethylpropan-1-ol], the IC50 was 2.3 nM.
To `COc1cnc2c(-c3nc4c(C(O)C(C)(C)C)cc5c(c4s3)OCO5)cc(C)cc2n1` (centres unmarked) [Example 263, 1-(7-(2-methoxy-7-methylquinoxalin-5-yl)-[1,3]dioxolo[4′,5′:3,4]benzo[1,2-d]thiazol-5-yl)-2,2-dimethylpropan-1-ol] belongs 5.7 nM; to `COc1cnc2c(-c3nc4c(C(O)C(C)(C)C)cc5c(c4s3)OCCCO5)cc(C)cc2n1` (centres unmarked) [Example 264, 1-(2-(2-methoxy-7-methylquinoxalin-5-yl)-8,9-dihydro-7H-[1,4]dioxepino[2′,3′:3,4]benzo[1,2-d]thiazol-4-yl)-2,2-dimethylpropan-1-ol], 15 nM; to `COc1cnc2c(-c3nc4ccc5c(c4s3)OC[C@H](COC(=O)Nc3cnc(C)nc3)O5)cc(Cl)cc2c1` [Example 266, (R)-(2-(6-chloro-3-methoxyquinolin-8-yl)-7,8-dihydro-[1,4]dioxino[2′,3′:3,4]benzo[1,2-d]thiazol-7-yl)methyl (2-methylpyrimidin-5-yl)carbamate], 2.1 nM.
To `COc1cnc2c(-c3nc4cc(F)c5c(c4s3)C[C@H](COC(=O)Nc3cnc(C)nc3)O5)cc(Cl)cc2c1` [Example 267, (R)-(2-(6-chloro-3-methoxyquinolin-8-yl)-5-fluoro-7,8-dihydrobenzofuro[5,4-d]thiazol-7-yl)methyl (2-methylpyrimidin-5-yl)carbamate] belongs 1.8 nM; to `COc1cnc2c(-c3nc4ccc5c(c4s3)OC[C@H](COC(=O)Nc3cnc(C)nc3)O5)cc(C)cc2c1` [Example 268, (R)-(2-(3-methoxy-6-methylquinolin-8-yl)-7,8-dihydro-[1,4]dioxino[2′,3′:3,4]benzo[1,2-d]thiazol-7-yl)methyl (2-methylpyrimidin-5-yl)carbamate], 4.4 nM; to `COc1cnc2c(-c3nc4cc(F)c5c(c4s3)C[C@H](COC(=O)Nc3cnc(C)nc3)O5)cc(C)cc2c1` [Example 269, (R)-(5-fluoro-2-(3-methoxy-6-methylquinolin-8-yl)-7,8-dihydrobenzofuro[5,4-d]thiazol-7-yl)methyl (2-methylpyrimidin-5-yl)carbamate], 2.7 nM.
On to `CCOc1cnc2c(-c3nc4cc(F)c5c(c4s3)C[C@H](COC(=O)Nc3cnc(C)nc3)O5)cc(Cl)cc2c1` [Example 270, (R)-(2-(6-chloro-3-ethoxyquinolin-8-yl)-5-fluoro-7,8-dihydrobenzofuro[5,4-d]thiazol-7-y 1)methyl (2-methylpyrimidin-5-yl)carbamate], for which the IC50 came to 2.2 nM.
Under `CCOc1cnc2c(-c3nc4ccc5c(c4s3)OC[C@H](COC(=O)Nc3cnc(C)nc3)O5)cc(Cl)cc2c1` [Example 271, (R)-(2-(6-chloro-3-ethoxyquinolin-8-yl)-7,8-dihydro-[1,4]dioxino[2′,3′:3,4]benzo[1,2-d]thiazol-7-yl)methyl (2-methylpyrimidin-5-yl)carbamate] stands 4.9 nM.
